In ChEMBL document CHEMBL4630902 (2021):

Legend:
[1] = biological target: 5-hydroxytryptamine receptor 3A (Homo sapiens) (UniProt P46098); conditions: Compound concentration 10.0 uM
[2] = biological target: Alpha-1A adrenergic receptor (Homo sapiens) (UniProt P35348); conditions: Compound concentration 10.0 uM
[3] = biological target: Alpha-2A adrenergic receptor (Homo sapiens) (UniProt P08913); conditions: Compound concentration 10.0 uM
[4] = BET mutant TR-FRET assay (BRDT BD2); parameters: species or system Homo sapiens
[5] = biological target: Sodium-dependent noradrenaline transporter (Homo sapiens) (UniProt P23975); conditions: Compound concentration 10.0 uM
[6] = biological target: 5-hydroxytryptamine receptor 5A (Homo sapiens) (UniProt P47898); conditions: Compound concentration 10.0 uM
[7] = biological target: 5-hydroxytryptamine receptor 2C (Homo sapiens) (UniProt P28335); conditions: Compound concentration 10.0 uM
[8] = biological target: Histamine H3 receptor (Homo sapiens) (UniProt Q9Y5N1); conditions: Compound concentration 10.0 uM
[9] = biological target: Muscarinic acetylcholine receptor M5 (Homo sapiens) (UniProt P08912); conditions: Compound concentration 10.0 uM
[10] = biological target: T1, GABA-A receptor; anion channel (Rattus norvegicus) (UniProt O09028+P15431+P18506+P18508+P19969+P20236+P23574+P23576+P28471+P28473+P30191+P62813+P63079+P63138+Q91ZM7+Q9ES14); conditions: Compound concentration 10.0 uM
[11] = biological target: Muscarinic acetylcholine receptor M3 (Homo sapiens) (UniProt P20309); conditions: Compound concentration 10.0 uM
[12] = biological target: Sodium-dependent serotonin transporter (Homo sapiens) (UniProt P31645); conditions: Compound concentration 10.0 uM
[13] = biological target: 5-hydroxytryptamine receptor 1D (Homo sapiens) (UniProt P28221); conditions: Compound concentration 10.0 uM
[14] = biological target: Kappa-type opioid receptor (Homo sapiens) (UniProt P41145); conditions: Compound concentration 10.0 uM
[15] = biological target: 5-hydroxytryptamine receptor 2B (Homo sapiens) (UniProt P41595); conditions: Compound concentration 10.0 uM
[16] = biological target: D(1A) dopamine receptor (Homo sapiens) (UniProt P21728); conditions: Compound concentration 10.0 uM
[17] = biological target: D(2) dopamine receptor (Homo sapiens) (UniProt P14416); conditions: Compound concentration 10.0 uM
[18] = biological target: Beta-1 adrenergic receptor (Homo sapiens) (UniProt P08588); conditions: Compound concentration 10.0 uM
[19] = biological target: Alpha-1D adrenergic receptor (Homo sapiens) (UniProt P25100); conditions: Compound concentration 10.0 uM
[20] = biological target: D(4) dopamine receptor (Homo sapiens) (UniProt P21917); conditions: Compound concentration 10.0 uM
[21] = biological target: Histamine H2 receptor (Homo sapiens) (UniProt P25021); conditions: Compound concentration 10.0 uM
[22] = biological target: 5-hydroxytryptamine receptor 6 (Homo sapiens) (UniProt P50406); conditions: Compound concentration 10.0 uM
[23] = biological target: D(3) dopamine receptor (Homo sapiens) (UniProt P35462); conditions: Compound concentration 10.0 uM
[24] = biological target: Sigma non-opioid intracellular receptor 1 (Homo sapiens) (UniProt Q99720); conditions: Compound concentration 10.0 uM
[25] = biological target: 5-hydroxytryptamine receptor 2A (Homo sapiens) (UniProt P28223); conditions: Compound concentration 10.0 uM
[26] = biological target: Muscarinic acetylcholine receptor M4 (Homo sapiens) (UniProt P08173); conditions: Compound concentration 10.0 uM
[27] = biological target: Mu-type opioid receptor (Homo sapiens) (UniProt P35372); conditions: Compound concentration 10.0 uM
[28] = biological target: T1, GABA-A receptor; anion channel (Rattus norvegicus); conditions: Compound concentration 10.0 uM; remark: listed apart in the source
[29] = biological target: Beta-3 adrenergic receptor (Homo sapiens) (UniProt P13945); conditions: Compound concentration 10.0 uM
[30] = biological target: Alpha-2B adrenergic receptor (Homo sapiens) (UniProt P18089); conditions: Compound concentration 10.0 uM
[31] = biological target: Beta-2 adrenergic receptor (Homo sapiens) (UniProt P07550); conditions: Compound concentration 10.0 uM
[32] = biological target: D(1B) dopamine receptor (Homo sapiens) (UniProt P21918); conditions: Compound concentration 10.0 uM
[33] = biological target: Histamine H4 receptor (Homo sapiens) (UniProt Q9H3N8); conditions: Compound concentration 10.0 uM
[34] = biological target: 5-hydroxytryptamine receptor 1A (Homo sapiens) (UniProt P08908); conditions: Compound concentration 10.0 uM
[35] = biological target: 5-hydroxytryptamine receptor 1B (Homo sapiens) (UniProt P28222); conditions: Compound concentration 10.0 uM
[36] = biological target: Muscarinic acetylcholine receptor M2 (Homo sapiens) (UniProt P08172); conditions: Compound concentration 10.0 uM
[37] = biological target: 5-hydroxytryptamine receptor 7 (Homo sapiens) (UniProt P34969); conditions: Compound concentration 10.0 uM
[38] = biological target: Sigma intracellular receptor 2 (Homo sapiens) (UniProt Q5BJF2); conditions: Compound concentration 10.0 uM
[39] = biological target: Alpha-2C adrenergic receptor (Homo sapiens) (UniProt P18825); conditions: Compound concentration 10.0 uM
[40] = biological target: Alpha-1B adrenergic receptor (Homo sapiens) (UniProt P35368); conditions: Compound concentration 10.0 uM
[41] = biological target: Delta-type opioid receptor (Homo sapiens) (UniProt P41143); conditions: Compound concentration 10.0 uM
Rattus norvegicus = species: Rattus norvegicus; conditions: Compound concentration 10.0 uM
[42] = biological target: Histamine H1 receptor (Homo sapiens) (UniProt P35367); conditions: Compound concentration 10.0 uM
[43] = biological target: Muscarinic acetylcholine receptor M1 (Homo sapiens) (UniProt P11229); conditions: Compound concentration 10.0 uM
[44] = biological target: 5-hydroxytryptamine receptor 1E (Homo sapiens) (UniProt P28566); conditions: Compound concentration 10.0 uM

Sequence of Muscarinic acetylcholine receptor M5 (Homo sapiens) (P08912 whole entry): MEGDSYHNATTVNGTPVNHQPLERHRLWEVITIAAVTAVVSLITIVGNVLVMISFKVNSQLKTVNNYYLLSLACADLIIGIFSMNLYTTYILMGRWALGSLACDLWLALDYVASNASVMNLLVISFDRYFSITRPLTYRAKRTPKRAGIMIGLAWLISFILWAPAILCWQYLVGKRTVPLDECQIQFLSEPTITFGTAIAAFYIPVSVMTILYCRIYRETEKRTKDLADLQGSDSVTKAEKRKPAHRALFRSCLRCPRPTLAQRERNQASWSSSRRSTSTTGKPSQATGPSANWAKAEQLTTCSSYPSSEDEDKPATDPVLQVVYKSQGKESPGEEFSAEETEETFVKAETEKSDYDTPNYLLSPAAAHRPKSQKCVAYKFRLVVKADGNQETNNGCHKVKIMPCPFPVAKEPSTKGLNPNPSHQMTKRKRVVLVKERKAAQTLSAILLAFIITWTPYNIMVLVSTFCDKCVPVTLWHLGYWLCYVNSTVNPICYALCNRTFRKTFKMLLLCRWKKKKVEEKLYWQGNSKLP
Sequence of Alpha-2C adrenergic receptor (Homo sapiens) (P18825 whole entry): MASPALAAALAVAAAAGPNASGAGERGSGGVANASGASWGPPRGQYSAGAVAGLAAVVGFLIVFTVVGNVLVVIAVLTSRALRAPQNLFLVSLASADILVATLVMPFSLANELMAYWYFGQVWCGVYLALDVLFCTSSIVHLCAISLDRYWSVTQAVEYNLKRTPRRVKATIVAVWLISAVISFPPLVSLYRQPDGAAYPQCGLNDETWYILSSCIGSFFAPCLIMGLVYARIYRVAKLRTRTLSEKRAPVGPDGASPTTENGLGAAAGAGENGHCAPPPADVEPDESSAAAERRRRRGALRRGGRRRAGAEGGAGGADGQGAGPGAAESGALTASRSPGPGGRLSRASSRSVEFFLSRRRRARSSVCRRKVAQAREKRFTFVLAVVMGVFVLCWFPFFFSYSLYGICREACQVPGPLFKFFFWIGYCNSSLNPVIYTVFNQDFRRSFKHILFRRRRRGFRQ
Sequence of 5-hydroxytryptamine receptor 7 (Homo sapiens) (P34969 whole entry): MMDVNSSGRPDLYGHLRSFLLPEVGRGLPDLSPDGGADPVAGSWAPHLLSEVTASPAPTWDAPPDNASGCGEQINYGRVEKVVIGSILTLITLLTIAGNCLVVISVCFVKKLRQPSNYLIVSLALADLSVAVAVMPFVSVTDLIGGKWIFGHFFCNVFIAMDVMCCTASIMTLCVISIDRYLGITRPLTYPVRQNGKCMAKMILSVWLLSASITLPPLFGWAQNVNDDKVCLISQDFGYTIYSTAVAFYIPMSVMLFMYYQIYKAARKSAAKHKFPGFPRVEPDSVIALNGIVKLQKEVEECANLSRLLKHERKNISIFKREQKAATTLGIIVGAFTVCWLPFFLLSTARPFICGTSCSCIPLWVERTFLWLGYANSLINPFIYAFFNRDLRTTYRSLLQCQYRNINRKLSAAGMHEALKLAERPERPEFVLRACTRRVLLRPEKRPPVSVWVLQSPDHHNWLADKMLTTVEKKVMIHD
Sequence of D(4) dopamine receptor (Homo sapiens) (P21917 whole entry): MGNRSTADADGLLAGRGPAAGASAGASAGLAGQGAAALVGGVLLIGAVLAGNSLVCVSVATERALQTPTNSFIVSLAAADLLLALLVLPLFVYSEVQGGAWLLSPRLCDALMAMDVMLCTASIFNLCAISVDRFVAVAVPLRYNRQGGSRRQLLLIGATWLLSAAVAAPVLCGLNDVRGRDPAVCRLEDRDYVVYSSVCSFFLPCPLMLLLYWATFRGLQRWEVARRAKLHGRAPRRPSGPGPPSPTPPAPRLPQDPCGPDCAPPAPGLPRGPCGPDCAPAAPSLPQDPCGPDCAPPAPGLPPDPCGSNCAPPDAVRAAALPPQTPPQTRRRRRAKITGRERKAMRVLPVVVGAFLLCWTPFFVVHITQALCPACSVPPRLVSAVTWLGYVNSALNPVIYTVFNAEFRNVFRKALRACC
Sequence of D(1B) dopamine receptor (Homo sapiens) (P21918 whole entry): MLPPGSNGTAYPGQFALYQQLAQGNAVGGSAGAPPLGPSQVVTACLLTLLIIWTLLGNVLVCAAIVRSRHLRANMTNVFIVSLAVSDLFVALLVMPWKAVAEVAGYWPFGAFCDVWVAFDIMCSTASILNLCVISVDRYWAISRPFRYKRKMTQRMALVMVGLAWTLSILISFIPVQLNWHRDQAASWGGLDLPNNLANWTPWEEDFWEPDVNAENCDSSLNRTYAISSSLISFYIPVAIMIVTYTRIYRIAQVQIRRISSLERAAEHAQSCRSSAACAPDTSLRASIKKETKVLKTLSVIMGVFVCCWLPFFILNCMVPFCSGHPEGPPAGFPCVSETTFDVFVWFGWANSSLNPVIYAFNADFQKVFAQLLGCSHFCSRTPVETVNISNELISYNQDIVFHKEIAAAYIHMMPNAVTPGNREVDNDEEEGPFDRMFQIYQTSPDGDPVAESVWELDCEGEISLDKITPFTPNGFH
Sequence of Kappa-type opioid receptor (Homo sapiens) (P41145 whole entry): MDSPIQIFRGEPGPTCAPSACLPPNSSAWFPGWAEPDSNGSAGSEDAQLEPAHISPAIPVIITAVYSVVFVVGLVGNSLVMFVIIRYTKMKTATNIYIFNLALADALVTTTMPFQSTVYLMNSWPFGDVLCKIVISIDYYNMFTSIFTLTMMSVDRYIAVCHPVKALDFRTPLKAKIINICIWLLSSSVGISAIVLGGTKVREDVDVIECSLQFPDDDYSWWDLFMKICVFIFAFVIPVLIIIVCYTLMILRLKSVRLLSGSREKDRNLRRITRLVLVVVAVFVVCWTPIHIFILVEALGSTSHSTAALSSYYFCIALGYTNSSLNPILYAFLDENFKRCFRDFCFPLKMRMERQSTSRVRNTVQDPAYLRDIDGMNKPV
Sequence of 5-hydroxytryptamine receptor 1A (Homo sapiens) (P08908 whole entry): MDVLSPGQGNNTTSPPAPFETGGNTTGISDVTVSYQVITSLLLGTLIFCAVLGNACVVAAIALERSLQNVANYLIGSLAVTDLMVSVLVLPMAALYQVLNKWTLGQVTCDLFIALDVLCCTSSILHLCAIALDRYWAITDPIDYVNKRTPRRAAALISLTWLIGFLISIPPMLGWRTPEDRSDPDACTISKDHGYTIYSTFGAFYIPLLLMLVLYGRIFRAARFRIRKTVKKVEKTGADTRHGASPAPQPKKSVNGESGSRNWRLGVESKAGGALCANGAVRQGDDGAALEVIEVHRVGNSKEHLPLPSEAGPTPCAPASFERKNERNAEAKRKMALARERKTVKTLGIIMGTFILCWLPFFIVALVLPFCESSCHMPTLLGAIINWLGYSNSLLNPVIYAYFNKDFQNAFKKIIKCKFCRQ
Sequence of Histamine H3 receptor (Homo sapiens) (Q9Y5N1 whole entry): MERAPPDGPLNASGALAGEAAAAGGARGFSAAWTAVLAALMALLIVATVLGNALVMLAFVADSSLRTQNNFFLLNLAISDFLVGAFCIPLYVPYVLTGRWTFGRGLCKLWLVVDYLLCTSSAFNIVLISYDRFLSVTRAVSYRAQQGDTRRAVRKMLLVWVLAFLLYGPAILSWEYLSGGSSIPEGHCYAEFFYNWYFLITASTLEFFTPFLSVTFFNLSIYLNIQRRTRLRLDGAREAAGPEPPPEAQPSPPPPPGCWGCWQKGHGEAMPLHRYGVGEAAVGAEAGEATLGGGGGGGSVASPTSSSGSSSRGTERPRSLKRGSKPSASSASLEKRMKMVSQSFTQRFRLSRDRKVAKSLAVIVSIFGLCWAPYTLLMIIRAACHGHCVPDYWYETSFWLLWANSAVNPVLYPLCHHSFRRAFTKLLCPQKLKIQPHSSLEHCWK
Sequence of 5-hydroxytryptamine receptor 6 (Homo sapiens) (P50406 whole entry): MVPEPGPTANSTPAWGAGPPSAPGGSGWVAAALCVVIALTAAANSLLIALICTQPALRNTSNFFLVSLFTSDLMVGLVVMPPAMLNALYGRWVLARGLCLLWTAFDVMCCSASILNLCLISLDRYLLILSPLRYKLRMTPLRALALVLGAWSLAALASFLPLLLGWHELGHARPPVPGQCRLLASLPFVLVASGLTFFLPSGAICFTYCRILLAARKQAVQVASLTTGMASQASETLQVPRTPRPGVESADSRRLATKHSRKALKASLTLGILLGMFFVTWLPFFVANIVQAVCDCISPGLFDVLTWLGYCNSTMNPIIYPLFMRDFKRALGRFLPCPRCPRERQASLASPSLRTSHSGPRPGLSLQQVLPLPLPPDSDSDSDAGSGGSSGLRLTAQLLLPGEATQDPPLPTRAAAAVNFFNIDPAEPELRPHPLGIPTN
Sequence of Delta-type opioid receptor (Homo sapiens) (P41143 whole entry): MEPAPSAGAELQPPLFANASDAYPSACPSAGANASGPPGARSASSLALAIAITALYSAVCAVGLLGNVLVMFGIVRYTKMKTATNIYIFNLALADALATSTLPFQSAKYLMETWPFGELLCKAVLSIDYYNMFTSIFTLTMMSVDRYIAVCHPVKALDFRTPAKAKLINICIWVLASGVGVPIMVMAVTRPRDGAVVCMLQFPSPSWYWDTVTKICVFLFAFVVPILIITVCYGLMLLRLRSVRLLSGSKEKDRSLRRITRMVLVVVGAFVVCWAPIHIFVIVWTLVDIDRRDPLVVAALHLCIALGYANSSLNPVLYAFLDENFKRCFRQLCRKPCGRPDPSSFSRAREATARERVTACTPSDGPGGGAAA
Sequence of 5-hydroxytryptamine receptor 2A (Homo sapiens) (P28223 whole entry): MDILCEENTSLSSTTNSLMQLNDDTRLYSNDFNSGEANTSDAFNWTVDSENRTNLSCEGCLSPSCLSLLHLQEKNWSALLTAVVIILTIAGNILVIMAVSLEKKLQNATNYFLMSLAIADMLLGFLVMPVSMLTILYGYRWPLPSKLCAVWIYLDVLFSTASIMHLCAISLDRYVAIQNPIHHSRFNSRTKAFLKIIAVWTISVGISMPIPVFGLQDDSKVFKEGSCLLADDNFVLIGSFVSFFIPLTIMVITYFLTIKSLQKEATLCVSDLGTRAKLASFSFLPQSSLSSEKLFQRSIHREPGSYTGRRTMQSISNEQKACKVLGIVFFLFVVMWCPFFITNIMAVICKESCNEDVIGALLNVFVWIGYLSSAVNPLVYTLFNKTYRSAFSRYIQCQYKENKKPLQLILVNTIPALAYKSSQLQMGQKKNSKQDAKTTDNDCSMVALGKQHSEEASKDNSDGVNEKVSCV

Compound `CNC(=O)c1cc(C(=O)N[C@H]2[C@@H]3COC[C@@H]32)cc2c1O[C@H](CF)[C@H]2c1ccccc1` [GSK973] has an inhibition [1] of 20.2%, an inhibition [2] of -4.55% and an inhibition [3] of 1.67%. For the same compound, the pIC50 [4] was 7.4, the inhibition [5] was 0.32% and the inhibition [6] was 12.5%. For the same compound, the inhibition [7] was 22.2%, the inhibition [8] was -9.57% and the inhibition [9] was 2.23%. The inhibition [10] was 30.2%, the inhibition [11] was 11.2% and the inhibition [12] was 27.2%. It also gave an inhibition [13] of -5.14%, an inhibition [14] of 1.22% and an inhibition [15] of 28.2%. The inhibition [16] was 9.7%, the inhibition [17] was 60.9% and the inhibition [18] was 6.03%. It also gave an inhibition [19] of 3.51%, an inhibition [20] of 81.6% and an inhibition [21] of -3.94%. For the same compound, the inhibition [22] was 16.8%, the inhibition [23] was 81.8% and the inhibition [24] was 28.4%. For the same compound, the inhibition [25] was 13.4%, the inhibition [26] was 2.78% and the inhibition [27] was -5.14%. It also gave an inhibition [28] of 4.07%, an inhibition [29] of 15.5% and an inhibition [30] of 12.5%. For the same compound, the inhibition [31] was 17.9%, the inhibition [32] was 28.3% and the inhibition [33] was 9.36%. For the same compound, the inhibition [34] was 8.96%, the inhibition [35] was -0.1% and the inhibition [36] was -5.52%. The inhibition [37] was 13.6%, the inhibition [38] was 14.3% and the inhibition [39] was 8.26%. The inhibition [40] was 1.49%, the inhibition [41] was 2.46% and the inhibition (Rattus norvegicus) was 9.06%.

Compound `CNC(=O)c1cc(C(=O)N[C@H]2[C@@H]3COC[C@@H]32)cc2c1O[C@@H](CF)[C@@H]2c1ccccc1` has an inhibition [1] of 10.6%, an inhibition [2] of 7.39% and an inhibition [3] of 13.8%. For the same compound, the inhibition [8] was -5.65%, the inhibition [9] was 18% and the inhibition [10] was 74.2%. It also gave an inhibition [11] of 12.6%, an inhibition [13] of -8.07% and an inhibition [14] of 41.1%. The inhibition [16] was -6.73%, the inhibition [18] was 6.93% and the inhibition [19] was -7.87%. The inhibition [20] was 17.7%, the inhibition [21] was 4.49% and the inhibition [22] was -1.21%. The inhibition [23] was 4.11%, the inhibition [42] was -1.58% and the inhibition [24] was 10.2%. It also gave an inhibition [25] of 11.6%, an inhibition [26] of 6.19% and an inhibition [27] of 4.77%. For the same compound, the inhibition [28] was 14.5%, the inhibition [29] was 31% and the inhibition [30] was 22.8%. For the same compound, the inhibition [31] was 9.35%, the inhibition [32] was -7.16% and the inhibition [34] was 14.9%. It also gave an inhibition [43] of 12.1%, an inhibition [35] of -8.28% and an inhibition [36] of -7.3%. For the same compound, the inhibition [37] was 1.31%, the inhibition [38] was 35.6% and the inhibition [39] was 7.66%. For the same compound, the inhibition [40] was -0.98%, the inhibition [41] was 17.1% and the inhibition [44] was 0.03%.
